Assay results taken from patent publication US20110033560A1, “PREPARATION AND A COMPONENT INTENDED TO BE ADDED TO A TOBACCO PRODUCT” (BIOHIT OYJ, priority 2007, published 2011).

Tests used:
Format in all cases: in vivo, human
[1] = Salivary acetaldehyde during smoking while sucking the Example 1 tablet (Example 6); settings: sucking tablet with 20 mg cysteine, one cigarette, after the first 5 minutes, two testees
Procedure: Two individuals tested the preparation prepared according to Example 1. The salivary acetaldehyde contents of the testees were measured before smoking and then after 5 minutes during smoking, i.e., 0 min, 5 min, 10 min, and 15 min after the testees started smoking. Each testee smoked one cigarette and, at the same time, saliva was collected from their mouths, as they sucked placebo tablets. Smoking lasted for 5 min. In another test, the testees repeated the study by sucking tablets containing 20 mg of cysteine.

[2] = Salivary acetaldehyde during smoking with L-cysteine sucking tablets, gas chromatography (Example 7); settings: for average salivary acetaldehyde content immediately after smoking: 5 min smoking
Procedure: Five smokers (of the age of 29±2.8) participated in the study, in which three cigarettes were smoked (with cleaning periods in between). While smoking each cigarette (in 5 minutes time), the voluntaries sucked tablets blindfold, containing a placebo, 1.25 mg, 2.5 mg, 5 mg, 10 mg or 20 mg of L-cysteine. The acetaldehyde in the saliva samples was analysed by gas chromatography after 0, 5, 10, 20 minutes from starting to smoke.

[3] = Moistened cysteine filter in cigarette holder, salivary acetaldehyde during smoking (Example 9); settings: filter and cysteine in solid form (not moistened)
Excerpt: The entire filter of Marlboro Red was removed or, in some tests, a 2-3 mm piece of the original filter was left in the cigarette.
In the tests, the ready commercial cigarette holders/mouthpieces of Denicotea, www.denicotea.de, were used. In the cigarette holders/mouthpieces, plastic cylinder-shaped “containers” were used, in which the filter material was packed. The original content (intended for the removal of nicotine) of the containers was removed and replaced with the material that was used in the study. The outer dimensions of the container were: diameter 8 mm and length 35 mm.
Cellulose wadding (c. 100 mg), filter paper (Whattman),
Cysteine was dissolved in distilled water, 30-180 mg of L-Cysteine/1 ml. The manufacturer: Fluka, 30089.
[…] After this, the testees smoked the cigarettes that had been placed in the mouthpieces. During smoking, saliva samples were collected from those participating in the tests and the acetaldehyde in the saliva was analyzed by gas chromatography, Perkin-Elmer, HS40, headspace Gas Chromatograph.

[4] = Salivary acetaldehyde after alcohol with slow-release buccal tablet (Example 10); settings: buccal tablet 100 mg, alcohol 0.8 g/kg, every 20 min up to 320 min, FIG. 10
Procedure: The testees enjoyed alcohol in amounts of 0.8 g per kilo of body weight. Thereafter, the testees attached, under their upper lip, a buccal tablet that contained 100 mg of N-acetyl cysteine and that slowly released the acetyl cysteine. The salivary acetaldehyde levels were measured at intervals of 20 minutes up to 320 minutes. Throughout, the acetaldehyde contents of those using the acetyl cysteine tablets were lower than of those using the placebo.

Compound	salivary acetaldehyde content [1]	reduction of amount of acetaldehyde compared with placebo ([2]; 1.25 mg tablet)	average salivary acetaldehyde content immediately after smoking ([2]; 5 mg L-cysteine sucking tablet)	inactivation of carcinogenic acetaldehyde in saliva during smoking ([2]; 5 mg, delivered with a melting tablet)	average salivary acetaldehyde content immediately after smoking ([2]; 10 mg L-cysteine sucking tablet)	average salivary acetaldehyde content immediately after smoking ([2]; 20 mg L-cysteine sucking tablet)	removal from saliva of acetaldehyde originating from tobacco ([2]; tablets of 5 mg, 10 and 20 mg, FIG. 4)	filtering of acetaldehyde [3]	salivary acetaldehyde contents compared with placebo [4]
N[C@@H](CS)C(=O)O [L-cysteine]	non-measurable level	about two thirds	0 µM	completely inactivated	0 µM	0 µM	all of the acetaldehyde	do not filter the acetaldehyde	–
CC(=O)N[C@@H](CS)C(=O)O [N-acetyl cysteine]	–	–	–	–	–	–	–	–	lower
